In patent publication US20240101568A1, “NOVEL BENZAZEPINE SPIRO DERIVATIVE” (SHANGHAI JEMINCARE PHARMACEUTICAL CO., LTD, priority 2020, published 2024):
Read-outs that look alike come from different tables or passages of the source. Values belong to the compound of their own block, whether it stands above or below them.

Experiments:
[1] = molecular target: T1, human vasopressin receptor V2R (Homo sapiens, UniProt P30518); assay: IC50 assay for inhibition of vasopressin-induced V2R activation (cAMP increase, HTRF) in HeLa-V2R cells; assay type: cell-based
T1 construct: host or cells: HeLa (lentivirus infection, puromycin selection)
T1 sequence (P30518 whole entry): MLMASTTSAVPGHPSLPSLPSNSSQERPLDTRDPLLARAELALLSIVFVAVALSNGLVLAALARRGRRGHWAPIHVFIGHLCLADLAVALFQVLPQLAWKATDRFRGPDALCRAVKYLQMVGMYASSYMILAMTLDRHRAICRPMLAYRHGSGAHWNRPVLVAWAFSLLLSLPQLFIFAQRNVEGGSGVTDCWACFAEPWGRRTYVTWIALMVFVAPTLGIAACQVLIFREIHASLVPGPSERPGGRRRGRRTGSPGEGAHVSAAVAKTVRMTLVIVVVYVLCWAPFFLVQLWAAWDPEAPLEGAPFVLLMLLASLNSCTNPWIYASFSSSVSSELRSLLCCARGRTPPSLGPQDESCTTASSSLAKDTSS
Excerpt: Experimental Example 1: IC50 Assay for Inhibition of Vasopressin-Induced Vasopressin Receptor V2R Activation by Compounds
Hela cell line stably expressing the human vasopressin receptor V2R (HeLa-V2R): it was constructed by Shanghai Jikai Gene Chemical Technology Co. Ltd. using lentivirus infection method and stably expressed human V2R as verified by qPCR.
DMEM cell culture medium: brand: Gibco, code: 11995065; fetal bovine serum: brand: Jitai, article No: FND500; 0.25% Trypsin: brand: Cibco, code: 25200072; Puromycin Dihydrochloride: brand: Gibco, code: A1113803; cAMP-GS HIRANGE KIT: brand: Cisbio, code: 62AM6PEC; IBMX: brand: Sigma, code: i5879; vasopressin AVP: Ji'er Biochemical (Shanghai) Co. Ltd.
Hela-V2R cells were cultured in a DMEM medium supplemented with 10% fetal bovine serum at 37° C. with 5% CO2 and continuously selected for V2R-expressing cells by adding 2 μg/mL puromycin. On the day of the experiment, cells were trypsinized, washed twice with stimulation buffer from the cAMP-GS HIRANGE kit, resuspended, and counted to 1.6×10^6 cells/ml, and IBMX was added to a final concentration of 0.5 mM. 5 μL of cell suspension/well was transferred to a 384-well plate and 2.5 μL of test compound or DMSO (minimum Min, maximum Max control) was added at various concentrations (10 μM in a 3-fold dilution, 10 concentration gradients) to the corresponding wells. After 30 minutes of incubation at room temperature, 2.5 μL vasopressin AVP solution was added to a final concentration of 2.25 nM to the test compound wells and 2.5 μL stimulation buffer to the minimum wells and incubated for 60 minutes at 25 C. Simultaneously cAMP standard sample (3-fold dilution from 5.6 μM, 10 concentration points) was prepared, and 10 μL of cAMP standard sample was transferred to corresponding well of a 384-well plate. The cAMP-d2 fluorescence and anti-cAMP antibody probes provided in the kit were diluted 20-fold with lysis buffer in the cAMP-GS HIRANGE kit, 5 μL of each was taken and added into each well of the 384-well plate in turn, mixed well with simple centrifugation performed, and incubated at 25° C. for 2 hours and then detect. Sample detection: fluorescence intensity was measured at 615 nm and 665 nm using the HTRF method in the Envision plate reader. Two duplicate wells were made for each sample to be tested, and 32 duplicate wells were made for Min and Max respectively.
The fluorescence intensity ratio FI665/615 at the wavelengths of 665 nm and 615 nm was calculated for each well sample. The standard curve was obtained by fitting the “log(inhibitor) vs response−variable slope (four parameters)” model in Prism 8.0 software with the logarithm of standard concentration as X and FI665/615X1000 as Y value. With the test well F1665/615X1000 as a Y value, the cAMP concentration corresponding to each sample was calculated according to the above standard curve in Prism 8.0 software.
The % Inhibition (inhibition percentage) was calculated as follows:
% inhibition=(Cmax−Ccmpd)/(Cmax−Cmm)×100
Where Cmax is the average calculated cAMP concentration in all maximum wells; Cmm is the average calculated cAMP concentration in all […]; Ccmpd is the calculated cAMP concentration of the test compound.
IC50s were calculated by non-linear regression using the “log(inhibitor) vs response−variable slope (four parameters)” model in Prism 8.0 software with % Inhibition (inhibition percentage) as Y value and log value of compound concentration as X, where Y=Bottom+(Top−Bottom)/(1+10^((Log IC50−X)*Hill Slope)).

[2] = in vivo; design: species or system mice
Procedure: Experimental Example 2: In Vivo Pharmacokinetic Experiments with Compounds of the Disclosure
This study evaluated in vivo pharmacokinetics in mice by intravenous and oral administration.
Experimental methods and conditions: male CD1 mice, aged 6-8 weeks, had free access to drinking water and were given a single intravenous injection of test compound 1 mg/Kg (vehicle 5% DMSO/10% Solutol/85% Saline), 5 min, 15 min, 30 min, 1 hr, 2 hr, 4 hr, 8 hr, 24 hr or oral gavage administration of 10 mg/kg (vehicle 5% DMSO/10% Solutol/85% Saline) after administration. Orbital blood was collected at 15 min, 30 min, 1 hr, 2 hr, 4 hr, 6 hr, 8 hr, and 24 hr after administration. No less than 50 μL of each sample was collected. Heparin sodium was used for anticoagulation. After collection, the sample was placed on ice, and the plasma was separated and tested within 1 hour. Plasma concentrations were determined by liquid-phase tandem mass spectrometry (LC/MS/MS). Pharmacokinetic parameters were calculated using Phoenix WinNonlin software. The results are shown in Tables 2 and 3 with Tofapriptan as control 1.

[3] = test system: LLC-PK1 cells; assay: Compound proliferation inhibition assay on LLC-PK1 cells (vasopressin-induced proliferation); assay type: cell-based, Porcine; details: AVP 10 nM, verapamil 5 μM, 48 hr, FIG. 1
Excerpt: Experimental Example 3: Compound Proliferation Inhibition Assay on LLC-PK1 Cells
(1) Cell • Porcine kidney epithelial cells LLC-PK1: purchased from ATCC, Cat #CL-101
(2) Reagents: • Medium 199, Gibco (Cat #11150059) • Fetal Bovine Serum (FBS), Australia, Jitai (Cat #FND500) • Trypsin-EDTA (0.25%), phenol red, Gibco (Cat #25200072) • PBS, pH 7.4, Gibco (Cat #10010031) • DMSO (Dimethyl Sulfoxide), Sigma (Cat #D8418) • Poly-D-lysine, Gibco (Cat #A3890401) • Vasopressin AVP: Ji'er Biochemical Co. Ltd. Customization • Verapamil hydrochloride, MCE (Cat #HY-A0064) • AlamarBlue™ HS Cell Viability Reagent, Invitrogen (Cat #A50100) […]
LLC-PK1 cells were cultured in M199 medium supplemented with 10% fetal bovine serum at 37° C. with 5% CO2. […] LLC-PK1 cells were trypsinized, resuspended in serum-free M199 after centrifugation, counted, diluted to a cell suspension of 1×10^5/mL in serum-free M199 culture medium, and FBS was added to a final concentration of 1%. […] On the fifth day, the culture solution was carefully suctioned away, the cells were washed once with 200 μL PBS, 90 μL of M199 serum-free culture solution was carefully added, then 10 μL Alamarblue reagent was added, and the mixture was centrifuged at 300 rpm for 1 min, incubated at 37° C. for 2 h, and then detected. […]
Data quality control: S/B, i.e., Max well average/Min well average, is calculated and […] is considered QC pass.

[4] = Human V2R Hela-Stable cell line OE2, AVP 2.25 nM, read-out: IC50 (nM), inhibition of the cAMP increase

Compound: O=C(Nc1ccc(C(=O)N2CCC(F)(F)C3(CN3)c3cc(Cl)ccc32)cn1)c1ccccc1C(F)(F)F (centres unmarked) [Compound 1]
IC50 [1]: 10.9 nM | AUC0-inf ([2]; male, CD1, mouse, iv, 1 mg/kg): 719 ng·h/mL | clearance ([2]; male, CD1, mouse, iv, 1 mg/kg): 23.2 mL/min/kg | half-life ([2]; male, CD1, mouse, iv, 1 mg/kg): 55.2 min | AUC0-inf ([2]; male, CD1, mouse, po, 10 mg/kg): 4060 ng·h/mL | Cmax ([2]; male, CD1, mouse, po, 10 mg/kg): 1260 ng/mL | bioavailability ([2]; male, CD1, mouse, po, 10 mg/kg): 56% | half-life ([2]; male, CD1, mouse, po, 10 mg/kg): 36 min | inhibitory effect on the proliferation of LLC-PK1 cells ([3]; compared with control 1): stronger than that of control 1 | pro-proliferation effect on LLC-PK1 cells [3]: no pro-proliferation effect

Compound: Cc1ccccc1C(=O)Nc1ccc(C(=O)N2CCC(F)(F)C3(CN3)c3cc(Cl)ccc32)c(C)c1 (centres unmarked) [Compound 2]
IC50 [1, 4]: 9.35 nM

Compound: Cc1ccccc1C(=O)Nc1ccc(C(=O)N2CCCC3(CN3)c3cc(Cl)ccc32)cn1 (centres unmarked) [Compound 4]
IC50 [1, 4]: 3.14 nM

Compound: O=C(Nc1ccc(C(=O)N2CCCC3(CN3)c3cc(Cl)ccc32)cn1)c1ccccc1C(F)(F)F (centres unmarked) [Compound 5]
IC50 [1, 4]: 4.67 nM

Compound: Cc1cc(NC(=O)c2ccccc2Cl)ccc1C(=O)N1CCCC2(CN2)c2cc(Cl)ccc21 (centres unmarked) [Compound 8]
IC50 [1, 4]: 5.01 nM

Compound: Cc1ccccc1C(=O)Nc1ccc(C(=O)N2CCCC3(CN3)c3cc(Cl)ccc32)c(C)c1 (centres unmarked) [Compound 9]
IC50 [1, 4]: 4.88 nM

IC50 [1, 4]: 11.2 nM
Compound: Cc1ccccc1C(=O)Nc1ccc(C(=O)N2CCCC3(CC3)c3cc(Cl)ccc32)c(C)c1 [Compound 16]

IC50 [1, 4]: 10.4 nM
Compound: Cc1ccccc1C(=O)Nc1ccc(C(=O)N2CCCC3(CCC3)c3cc(Cl)ccc32)c(C)c1 [Compound 17]

Compound: Cc1ccccc1C(=O)Nc1ccc(C(=O)N2CCC(F)(F)C3(CN3)c3cc(Cl)ccc32)cn1 (centres unmarked) [Compound 20]
IC50 [1, 4]: 5.54 nM

Compound: O=C(Nc1ccc(C(=O)N2CCC(F)(F)C3(CN3)c3cc(Cl)ccc32)cn1)c1ccccc1Cl (centres unmarked) [Compound 21]
IC50 [1, 4]: 4.51 nM

AUC0-inf ([2]; mouse, iv, 1 mg/kg): 367 ng·h/mL | Cl ([2]; mouse, iv, 1 mg/kg): 45.5 mL/min/kg | T1/2 ([2]; mouse, iv, 1 mg/kg): 31.8 min | AUC0-inf ([2]; mouse, po, 10 mg/kg): 1613 ng·h/mL | Cmax ([2]; mouse, po, 10 mg/kg): 1307 ng/mL | F (%) ([2]; mouse, po, 10 mg/kg): 44% | T1/2 ([2]; mouse, po, 10 mg/kg): 94.8 min
Compound: Cc1ccccc1C(=O)Nc1ccc(C(=O)N2CCCC(O)c3cc(Cl)ccc32)c(C)c1 (centres unmarked) [Control 1, Tofapriptan, reference compound]
